Results reported in the NIST ThermoML archive (doi:10.1021/acs.jced.8b01078).

Conditions: Liquid, Closed cell (Static) method

O [water]
Conditions | vapor or sublimation pressure [kPa]
313.16 K | 7.46
323.16 K | 12.54
333.16 K | 20.24
343.16 K | 31.54
353.16 K | 48.25
363.16 K | 70.49
373.16 K | 101.98
